These results are taken from ChEMBL document CHEMBL1146816, “Design, synthesis, and evaluation of estradiol-linked genotoxicants as anti-cancer agents” (Bioorg Med Chem Lett, 2004).

The target of data set [1] is Estrogen receptor (Homo sapiens) (UniProt Q92731+P03372). Kind of data set: Percent of covalently modified 16-mer (DNA adduct) in a slowly migrating complex with ER ligand binding domain (ER-LBD) in EMSA electrophoretic mobility shift assay. It is filed as functional.
The subject of another data set is MCF7. Nature of the data set: Dose required for 30% clonal survival of ER positive MCF-7 breast cancer cells after 2 hr. It is filed as functional, Homo sapiens.
A short description of data set [2]: Percent of 16-mer cleaved by piperidine after treatment with test compound for 24 hr at 37 degrees C. It is filed as functional.
The next data set concerns MDA-MB-231. Kind of data set: Dose required for 30% clonal survival of ER negative MDA-MB-231 breast cancer cells after 2 hr. It is filed as functional, Homo sapiens.
The nature of data set [3]: LogD at pH 7.4. It is filed as physicochemical. The note with it: buffer.
Data set [4] can be described thus: Partition coefficient (logP). It is filed as physicochemical. The following applies: octanol/water.

Take `C[C@]12CC[C@@H]3c4ccc(O)cc4C[C@@H](CCCCCCNCC/N=C(/N)NCCCc4ccc(N(CCCl)CCCl)cc4)[C@H]3[C@@H]1CC[C@@H]2O`: the Oligo shifted in data set [1] was 93%. Also, the ED30 in the data set with MCF7 and with MDA-MB-231 was above 20 µM each time. Further, the Oligo modified in data set [2] amounted to 29%. In data set [3], this compound yielded a logD of 3.12. The compound also had a logP in data set [4] of 6.27.
Take `C[C@]12CC[C@@H]3c4ccc(O)cc4C[C@@H](CCCCCCNCCCCNCCCCc4ccc(N(CCCl)CCCl)cc4)[C@H]3[C@@H]1CC[C@@H]2O`: the Oligo shifted in data set [1] stood at 38%. The results for the ED30 in the data set with MCF7 and in the data set on MDA-MB-231 were 5.1 µM and 7.9 µM, respectively. The Oligo modified in data set [2] is 79%. Moreover, the logD in data set [3] worked out at 2.22. The compound also registered a logP in data set [4] of 5.32.
On to `C[C@]12CC[C@@H]3c4ccc(O)cc4C[C@@H](CCCCCCNC(=O)CCCc4ccc(N(CCCl)CCCl)cc4)[C@H]3[C@@H]1CC[C@@H]2O`, for which the results for the ED30 in the data set on MCF7 and with MDA-MB-231 were above 20 µM and 20 µM, respectively. This compound came in with an Oligo modified in data set [2] of 14%. For the same compound, the logD in data set [3] was 5.07. This compound also gave a logP in data set [4] of 5.07.
On to `C[C@]12CC[C@@H]3c4ccc(O)cc4C[C@@H](CCCCCCOC(=O)NCCCc4ccc(N(CCCl)CCCl)cc4)[C@H]3[C@@H]1CC[C@@H]2O`, for which the ED30 in the data set on MCF7 and in the data set on MDA-MB-231 was above 20 µM in each case. In data set [2], this compound came in with an Oligo modified of 3%. The same compound had a logD in data set [3] of 5.61. The log partition coefficient (logP) in data set [4] amounted to 5.61.
As to `C[C@]12CC[C@@H]3c4ccc(O)cc4C[C@@H](CCCCCCNC(=O)CCCNC(=O)CCCc4ccc(N(CCCl)CCCl)cc4)[C@H]3[C@@H]1CC[C@@H]2O`, the ED30 in the data set on MCF7 and in the data set on MDA-MB-231 was above 20 µM throughout. The compound also yielded an Oligo modified in data set [2] of 39%. Further, in data set [3], the logD worked out at 4.85. In data set [4], this compound returned a logP of 4.85.
As to `C[C@]12CC[C@@H]3c4ccc(O)cc4C[C@@H](CCCCCCNCCOC(=O)NCCCc4ccc(N(CCCl)CCCl)cc4)[C@H]3[C@@H]1CC[C@@H]2O`, in data set [1], the Oligo shifted was found to be 93%. Also, the figures for the ED30 with MCF7 and in the data set on MDA-MB-231 were 5.1 µM and 9.6 µM, respectively. For the same compound, the Oligo modified in data set [2] was 45%. Besides, the logD in data set [3] stood at 2.22. The logP in data set [4] is 5.32.
Turning to `C[C@]12CC[C@@H]3c4ccc(O)cc4C[C@@H](CCCCCC/N=C(/N)NCCCc4ccc(N(CCCl)CCCl)cc4)[C@H]3[C@@H]1CC[C@@H]2O`, in data set [1], the Oligo shifted amounted to 38%. Further, the ED30 with MCF7 and in the data set with MDA-MB-231 was above 20 µM throughout. Also, in data set [2], the Oligo modified was 58%. Besides, the pH-dependent lipophilicity (logD) in data set [3] came to 2.52. Also, the logP in data set [4] was 5.67.
Turning to `C[C@]12CC[C@@H]3c4ccc(O)cc4C[C@@H](CCCCCCNCCCCc4ccc(N(CCCl)CCCl)cc4)[C@H]3[C@@H]1CC[C@@H]2O`, the Oligo shifted in data set [1] turned out to be 67%. The results for the ED30 in the data set on MCF7 and in the data set with MDA-MB-231 were 5.1 µM and 8.6 µM, respectively. In data set [2], this compound came in with an Oligo modified of 44%. In addition, the logD in data set [3] turned out to be 2.87. The logP in data set [4] came out at 5.96.

A word on the logD: it is lipophilicity at a set pH, counting ionised and neutral species. A lower logD goes with a more hydrophilic compound. Broadly, the logP is the decadic logarithm of the partition coefficient of the neutral form, usually between octanol and water. Read a low logP as a more hydrophilic compound.
